In patent US7074829B2, “Antiestrogens, process for their production and their pharmaceutical use” (Schering AG, priority 1998, dated 2006):

System: uterus
Assay: Uterus growth test in infant rats (antiestrogenic action)
Type: in vivo, rat
Conditions: inhibition compared to the estradiol benzoate (EB) control

## CC(=O)O[C@H]1CC[C@H]2C[C@@H](c3ccc(O)cc3)[C@@H](c3ccc(OCCCCC[S+]([O-])CCCC(F)(F)C(F)(F)F)cc3)C[C@@]21C (some centres unmarked) [Example 5]
  Antiuterotrophic Action at 0.3 mg s.c. [% Inhibition]: 55 % Inhibition

## C[C@]12C[C@H](c3ccc(OCCCCC[S+]([O-])CCCC(F)(F)C(F)(F)F)cc3)[C@H](c3ccc(O)cc3)C[C@@H]1CC[C@@H]2O (stereo partly drawn) [Example 3, (1S,3S,4R,6S,9S)-9-Hydroxy-4-(4-hydroxyphenyl)-1-methyl-3-[4-(5-(4,4,5,5,5-pentafluoro-pentylsulfinyl)pentyloxy)phenyl]-bicyclo[4.3.0]nonane]
  Antiuterotrophic Action at 0.3 mg s.c. [% Inhibition]: 37 % Inhibition
